In patent US20240109903A1, “SUBSTITUTED HETEROCYCLES FOR TREATING CANCER” (Northwestern University, priority 2022, published 2024):
Read-outs that look alike come from different tables or passages of the source.

Key:
[1] = test system: MV-4-11 acute myeloid leukemia cells; assay: CellTiter-Glo 2.0 cell viability, MV-4-11; type: cell-based; details: Homo sapiens
Method in brief: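 MV4-11 cells plated at 3,000 cells/well on pre-dispensed compounds and incubated 3 days at 37 °C, 5% CO2. Viability read as ATP-dependent luminescence with CellTiter-Glo 2.0 after 20 min at ambient temperature, followed by regression analysis.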

full NCI 60 cell panel = assay: NCI 60 Cell One-dose screen; type: cell-based, human; details: single high dose 10^−5 M, NCI 60 panel
Method in brief: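 Single dose of 10^−5 M across the full NCI-60 human tumour cell panel. Value is percent growth relative to no-drug control and to time-zero cell number: 0–100 means growth inhibition, 0 means no net growth, below 0 means lethality (−100 = all cells dead).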

EKVX = assay: NCI 60 five-dose screen EKVX; type: cell-based; details: Homo sapiens, five-dose; for CC50: read-out: LC50 (the source's name) (converted)
NCI-H460 = assay: NCI 60 five-dose screen NCI-H460; type: cell-based; details: Homo sapiens, five-dose; for CC50: read-out: LC50 (the source's name) (converted)
HCT-116 = assay: NCI 60 five-dose screen HCT-116; type: cell-based; details: Homo sapiens, five-dose; for CC50: read-out: LC50 (the source's name) (converted)
HCT-15 = assay: NCI 60 five-dose screen HCT-15; type: cell-based; details: Homo sapiens, five-dose; for CC50: read-out: LC50 (the source's name) (converted)
HT29 = assay: NCI 60 five-dose screen HT29; type: cell-based; details: Homo sapiens, HT-29, five-dose; for CC50: read-out: LC50 (the source's name) (converted)
SW-620 = assay: NCI 60 five-dose screen SW-620; type: cell-based; details: Homo sapiens, five-dose; for CC50: read-out: LC50 (the source's name) (converted)
SF-295 = assay: NCI 60 five-dose screen SF-295; type: cell-based; details: Homo sapiens, five-dose; for CC50: read-out: LC50 (the source's name) (converted)
SF-539 = assay: NCI 60 five-dose screen SF-539; type: cell-based; details: Homo sapiens, five-dose; for CC50: read-out: LC50 (the source's name) (converted)
M14 = assay: NCI 60 five-dose screen M14; type: cell-based; details: Homo sapiens, five-dose; for CC50: read-out: LC50 (the source's name) (converted)
MDA-MB-435 = assay: NCI 60 five-dose screen MDA-MB-435; type: cell-based; details: Homo sapiens, five-dose; for CC50: read-out: LC50 (the source's name) (converted)
UACC-62 = assay: NCI 60 five-dose screen UACC-62; type: cell-based; details: Homo sapiens, five-dose; for CC50: read-out: LC50 (the source's name) (converted)
786-0 = assay: NCI 60 five-dose screen 786-0; type: cell-based; details: Homo sapiens, five-dose; for CC50: read-out: LC50 (the source's name) (converted)
ACHN = assay: NCI 60 five-dose screen ACHN; type: cell-based; details: Homo sapiens, five-dose; for CC50: read-out: LC50 (the source's name) (converted)
RXF 393 = assay: NCI 60 five-dose screen RXF 393; type: cell-based; details: Homo sapiens, five-dose; for CC50: read-out: LC50 (the source's name) (converted)
SN12C = assay: NCI 60 five-dose screen SN12C; type: cell-based; details: Homo sapiens, five-dose; for CC50: read-out: LC50 (the source's name) (converted)
MCF7 = assay: NCI 60 five-dose screen MCF7; type: cell-based; details: Homo sapiens, five-dose; for CC50: read-out: LC50 (the source's name) (converted)
MDA-MB-231/ATCC = assay: NCI 60 five-dose screen MDA-MB-231/ATCC; type: cell-based; details: Homo sapiens, five-dose; for CC50: read-out: LC50 (the source's name) (converted)
BT-549 = assay: NCI 60 five-dose screen BT-549; type: cell-based; details: Homo sapiens, five-dose; for CC50: read-out: LC50 (the source's name) (converted)
[2] = MV4-11, 72 h, MV-4-11 cells, 3 days, CellTiter-Glo 2.0, read-out: IC50 (uM) [Cell Type: MV-4-11]
[3] = MV4-11, bound stated in text, read-out: IC50 against MV-4-11 acute myeloid leukemia cells

FC(F)(F)CN1CCN(CCn2c(C(F)(F)F)cc3c(Cl)ncnc32)CC1 [NUCC-0226683]
IC50 [1, 2]: 1.83 µM
IC50 [1, 3]: < 2 µM
growth inhibition in the One-Dose Screen (full NCI 60 cell panel): significant growth inhibition
GI50 (EKVX): 11.7 µM
IC50 (EKVX): 28.8 µM
IC (TGI) (EKVX): 40.7 µM
CC50 (EKVX): ≥ 100 µM
GI50 (NCI-H460): 2.69 µM
IC50 (NCI-H460): 3.63 µM
IC (TGI) (NCI-H460): 6.76 µM
CC50 (NCI-H460): 30.9 µM
GI50 (HCT-116): 3.16 µM
IC50 (HCT-116): 3.72 µM
IC (TGI) (HCT-116): 13.2 µM
CC50 (HCT-116): 64.6 µM
GI50 (HCT-15): 2.57 µM
IC50 (HCT-15): 3.55 µM
IC (TGI) (HCT-15): 7.41 µM
CC50 (HCT-15): 50.1 µM
GI50 (HT29): 5.5 µM
IC50 (HT29): 7.41 µM
IC (TGI) (HT29): 36.3 µM
CC50 (HT29): ≥ 100 µM
GI50 (SW-620): 4.9 µM
IC50 (SW-620): 6.17 µM
IC (TGI) (SW-620): 19.5 µM
CC50 (SW-620): 63.1 µM
GI50 (SF-295): 10.2 µM
IC50 (SF-295): 17.8 µM
IC (TGI) (SF-295): 25.7 µM
CC50 (SF-295): 64.6 µM
GI50 (SF-539): 12.6 µM
IC50 (SF-539): 22.9 µM
IC (TGI) (SF-539): 28.8 µM
CC50 (SF-539): 66.1 µM
GI50 (M14): 6.17 µM
IC50 (M14): 12.3 µM
IC (TGI) (M14): 22.9 µM
CC50 (M14): 67.6 µM
GI50 (MDA-MB-435): 5.5 µM
IC50 (MDA-MB-435): 9.12 µM
IC (TGI) (MDA-MB-435): 19.5 µM
CC50 (MDA-MB-435): 51.3 µM
GI50 (UACC-62): 4.68 µM
IC50 (UACC-62): 10 µM
IC (TGI) (UACC-62): 18.2 µM
CC50 (UACC-62): 47.9 µM
GI50 (786-0): 22.4 µM
IC50 (786-0): 37.2 µM
IC (TGI) (786-0): 60.3 µM
CC50 (786-0): ≥ 100 µM
GI50 (ACHN): 12.3 µM
IC50 (ACHN): 22.4 µM
IC (TGI) (ACHN): 100 µM
CC50 (ACHN): ≥ 100 µM
GI50 (RXF 393): 11 µM
IC50 (RXF 393): 30.9 µM
IC (TGI) (RXF 393): 28.2 µM
CC50 (RXF 393): 72.4 µM
GI50 (SN12C): 7.76 µM
IC50 (SN12C): 13.8 µM
IC (TGI) (SN12C): 22.9 µM
CC50 (SN12C): 60.3 µM
GI50 (MCF7): 10 µM
IC50 (MCF7): 15.8 µM
IC (TGI) (MCF7): 42.7 µM
CC50 (MCF7): ≥ 100 µM
GI50 (MDA-MB-231/ATCC): 1.78 µM
IC50 (MDA-MB-231/ATCC): 3.39 µM
IC (TGI) (MDA-MB-231/ATCC): 4.27 µM
CC50 (MDA-MB-231/ATCC): 11.5 µM
GI50 (BT-549): 12.9 µM
IC50 (BT-549): 26.9 µM
IC (TGI) (BT-549): 26.9 µM
CC50 (BT-549): 55 µM

FC(F)(F)c1cc2c(Cl)ncnc2n1CCN1CCCCC1 [NUCC-0226679]
IC50 [1, 2]: 0.675 µM
IC50 [1, 3]: < 2 µM
growth inhibition in the One-Dose Screen (full NCI 60 cell panel): significant growth inhibition
GI50 (EKVX): 16.2 µM
IC50 (EKVX): 51.3 µM
IC (TGI) (EKVX): 85.1 µM
CC50 (EKVX): ≥ 100 µM
GI50 (NCI-H460): 18.2 µM
IC50 (NCI-H460): 26.3 µM
IC (TGI) (NCI-H460): 50.1 µM
CC50 (NCI-H460): ≥ 100 µM
GI50 (HCT-116): 4.9 µM
IC50 (HCT-116): 6.03 µM
IC (TGI) (HCT-116): 20.4 µM
CC50 (HCT-116): 67.6 µM
GI50 (HCT-15): 3.16 µM
IC50 (HCT-15): 4.17 µM
IC (TGI) (HCT-15): 12.9 µM
CC50 (HCT-15): 55 µM
GI50 (HT29): 20.9 µM
IC50 (HT29): 29.5 µM
IC (TGI) (HT29): 81.3 µM
CC50 (HT29): ≥ 100 µM
GI50 (SW-620): 11.2 µM
IC50 (SW-620): 15.8 µM
IC (TGI) (SW-620): 28.8 µM
CC50 (SW-620): 74.1 µM
GI50 (SF-295): 22.4 µM
IC50 (SF-295): 40.7 µM
IC (TGI) (SF-295): 87.1 µM
CC50 (SF-295): ≥ 100 µM
GI50 (SF-539): 17 µM
IC50 (SF-539): 31.6 µM
IC (TGI) (SF-539): 36.3 µM
CC50 (SF-539): 75.9 µM
GI50 (M14): 12.9 µM
IC50 (M14): 22.4 µM
IC (TGI) (M14): 33.1 µM
CC50 (M14): 87.1 µM
GI50 (MDA-MB-435): 13.2 µM
IC50 (MDA-MB-435): 21.9 µM
IC (TGI) (MDA-MB-435): 30.2 µM
CC50 (MDA-MB-435): 67.6 µM
GI50 (UACC-62): 12 µM
IC50 (UACC-62): 22.4 µM
IC (TGI) (UACC-62): 30.2 µM
CC50 (UACC-62): 75.9 µM
GI50 (786-0): 39.8 µM
IC50 (786-0): 66.1 µM
IC (TGI) (786-0): 100 µM
CC50 (786-0): ≥ 100 µM
GI50 (ACHN): 6.46 µM
IC50 (ACHN): 17 µM
IC (TGI) (ACHN): 100 µM
CC50 (ACHN): ≥ 100 µM
GI50 (RXF 393): 15.5 µM
IC50 (RXF 393): 45.7 µM
IC (TGI) (RXF 393): 40.7 µM
CC50 (RXF 393): ≥ 100 µM
GI50 (SN12C): 19.5 µM
IC50 (SN12C): 34.7 µM
IC (TGI) (SN12C): 100 µM
CC50 (SN12C): ≥ 100 µM
GI50 (MCF7): 19.5 µM
IC50 (MCF7): 30.2 µM
IC (TGI) (MCF7): 75.9 µM
CC50 (MCF7): ≥ 100 µM
GI50 (MDA-MB-231/ATCC): 5.5 µM
IC50 (MDA-MB-231/ATCC): 14.5 µM
IC (TGI) (MDA-MB-231/ATCC): 19.5 µM
CC50 (MDA-MB-231/ATCC): 50.1 µM
GI50 (BT-549): 15.1 µM
IC50 (BT-549): 30.2 µM
IC (TGI) (BT-549): 29.5 µM
CC50 (BT-549): 58.9 µM
